Structures can show the parent of a compound that is named as a salt. Where two headings read alike, the source gives them in different places.
Key:
MeWo cells [1] = experiment: Melanoma cells grafted on the chorioallantoic membrane (CAM) of chick eggs; assay type: in vivo; details: MeWo tumors on CAM; sPAH 500 µM and/or Dxr 20 µM, 100 µL every two days, 10 days
Description: These experiments were performed by the company INOVOTION (La Tronche, France). Fertilized White Leghorn eggs were randomized in 4 groups 9 days after inoculation of 3.10^6 MeWo cells onto the CAM of each egg. At day 10 (E10), tumors began to be detectable and they were treated by adding 100 µL of vehicle (1.2% DMSO in PBS), doxorubicin, and sPAH alone or with doxorubicin. Eggs were treated every two days (E10, E12, E14, E16, E18) for 10 days in the same way. At day 19 (E19), the upper portion of the CAM was removed, washed in PBS, and directly transferred in PFA for 48 h, and the tumors were then carefully cut away from normal CAM tissue.

A375 cells [2] = experiment: Cytotoxicity assay (neutral red), A375 cells; assay type: cell-based, human; details: for IC50: Homo sapiens
Description: (§1) Human melanoma cell lines A375 and MeWo were purchased from ATCC, and cultured in DMEM medium supplemented with 10% fetal bovine serum and penicillin/streptomycin (Invitrogen) at 37 °C in a 5% CO2/95% water-saturated air atmosphere. Melanoma cell lines SKMEL 28, SKMEL V3, WM9S, and WM9R were provided by Robert Ballotti (C3M, Nice, France). MeWo-dxrR cells were obtained by adding increasing concentrations of doxorubicin, up to 0.2 µM, in the culture medium over 6 months. These cells were grown in medium supplemented with 0.2 µM dxr. WM9R cells were obtained by adding increasing concentrations of vemurafenib, up to 5 µM, in the culture medium over 6 months. These cells were grown in medium supplemented with 5 µM vemurafenib. HEK cells were grown in 75 mm tissue culture dishes (Falcon, Franklin Lakes, NJ, USA) in Dulbecco’s modified Eagle’s medium (Gibco, Life Technologies, Saint Aubin, France) supplemented with 10% fetal calf serum (Hyclone, Thermo Fisher Scientific GMBH, Ulm, Germany) and 1% penicillin/streptomycin (Gibco, Life Technologies, Saint Aubin, France) in a humidified incubator at 37 °C (5% CO2).
(§2) Cells were seeded in 96-well plates in triplicate and grown in medium to achieve 70 to 80% confluence. Medium was then removed and replaced with 100 µL/well of complete medium containing PAH or DMSO as a control. After 2 h, 100 µL of complete medium containing serial dilutions of dxr, cisplatin or vemurafenib were added. Plates were incubated at 37 °C and 5% CO2. After 24 or 48 h, cells were incubated for 3 h at 37 °C with 100 µL/well neutral red (NR) solution (50 µg/mL in medium) following the manufacturer’s protocol. Measurements were made in microplate readers (Multiskan Go Microplate Spectrophotometer from Thermo Scientific).

MeWo-DxrR cells = experiment: Cytotoxicity assay (neutral red), MeWo cells rendered resistant to dxr; assay type: cell-based; details: Homo sapiens, Dxr + DMSO
Description: as §1
Cells were seeded in 96-well plates in triplicate and grown in medium to achieve 70 to 80% confluence. […] Measurements were made in microplate readers (Multiskan Go Microplate Spectrophotometer from Thermo Scientific).

MeWo cells [3] = experiment: Cytotoxicity assay (neutral red), MeWo cells; assay type: cell-based, human; details: for IC50: Homo sapiens; for Dxr-IC50 in the presence of 20 µM compound: MeWo (Figure 3B), same series also tested on A375 (Figure S1); for Dxr-IC50 in the presence of 20 µM compound / effect on dxr cytotoxicity: compound at 20 µM; for effect on dxr cytotoxicity: melanoma cells MeWo (Figure 3B) and A375 (Figure S1), compared to PAH
Description: as §1, §2

WM9R cells = experiment: Competition on dxr loading, WM9R cells; assay type: cell-based; details: 10 µM dxr, 100 µM vemurafenib, 1 h
Description: (§3) Dxr efflux measurements were carried out as previously described. Cells were seeded on coverslips in 24-well plates and allowed to grow to 80% confluence. Coverslips were incubated at 37 °C and 5% CO2 with 10 μM dxr in physiological buffer (140 mM NaCl, 5 mM KCl, 1 mM CaCl2, 1 mM MgSO4, 5 mM glucose, 20 mM HEPES, pH 7.4). After 2 h, three coverslips were immediately fixed with 4% PFA for the dxr loading control, rapidly washed with PBS and mounted in SlowFade Gold antifade reagent with DAPI (Invitrogen). The other coverslips (triplicated per condition) were incubated with physiological buffer supplemented with DMSO or 10 µM of PAH under gentle shaking at room temperature and protected from light. After 30 min, coverslips were fixed with 4% PFA, washed, and mounted as described above. For competition on dxr loading, A375 and WM9R cells seeded on coverslips were incubated for 1 h at 37 °C and 5% CO2 with 10 μM dxr in physiological buffer in the presence or the absence of 100 µM vemurafenib. Images were acquired with a Zeiss Axioplan 2 fluorescence microscope coupled to a digital charge-coupled device camera using a 40×/1.3 Plan NeoFluar objective and filters for Alexa 594. Dxr fluorescence was quantified using ImageJ software. Sampling of cells was performed randomly. About 100 cells (from three wells) were scored per condition per experiment.

[4] = tested on: A375 BRAF^V600E melanoma cells; experiment: Melanoma xenograft study in mice; assay type: in vivo; details: Figure S6
Description: Forty-eight male athymic Nu/NU NMRI mice (4–5 weeks) were purchased from Charles River and housed under pathogen-free conditions. A 200 µL aliquot of 3 Millions A375 BRAF^V600E melanoma cells were injected subcutaneously per mouse. […] Animals were monitored daily for symptoms of disease (weight loss >20%, ruffled coat, hunched back, weakness, reduced motility) and tumor sizes were measured every 3 to 4 days. […]
A part of each tumor was cut in 8 µm thick tissue sections using a microtome-cryostat for quantification of the number of apoptotic tumor cells and of proliferative cells performed using the colorimetric DeadEND TUNEL System (Promega, Mannheim, Germany) and immunofluorescence analysis of Ki67 (BD pharmigen 556003), respectively. OCT was removed from the remainder of each tumor, and tumors were crushed in 50 mM Tris-HCl pH 6.8, 10% glycerol, and 2% SDS), heated at 95 °C, and sonicated for Western blot analyses as well as vemurafenib and cholesterol quantification. Protein concentration in each homogenate was evaluated using a Bio-Rad protein assay based on the Bradford dye-binding method.

A375 cells [5] = experiment: Competition on dxr loading, A375 cells; assay type: cell-based, human; details: 10 µM dxr, 100 µM vemurafenib, 1 h
Description: as §3

COc1cccc2c1C(=O)c1c(O)c3c(c(O)c1C2=O)C[C@@](O)(C(=O)CO)C[C@@H]3O[C@H]1C[C@H](N)[C@H](O)[C@H](C)O1 [Dxr, Doxorubicin hydrochloride, reference compound]
Tumor regression (%) (tumor weight with respect to control) (MeWo cells [1]): 28% | IC50 (A375 cells [2]; A-375, A375, Dxr + DMSO, 24 or 48 h, read-out: Dxr IC50): 41 ± 8.2 µM | IC50 (MeWo-DxrR cells): 247 ± 49 µM | IC50 (MeWo cells [3]; MeWo, Dxr + DMSO, 24 or 48 h, read-out: Dxr IC50): 142 ± 2.2 µM

COc1cc(C)c(CC/C(C)=C/Cc2cc(O)ccc2O)c(C)c1C [Natural PAH, panicein A hydroquinone]
IC50 (A375 cells [2]; A-375, A375 cells, 2 µM Dxr present, read-out: IC50 of PAH at 2 µM Dxr): 12.4 ± 4.9 µM | IC50 (MeWo cells [3]; MeWo, MeWo cells, 2 µM Dxr present, read-out: IC50 of PAH at 2 µM Dxr): 6.6 ± 0.8 µM

CCCS(=O)(=O)Nc1ccc(F)c(C(=O)c2c[nH]c3ncc(-c4ccc(Cl)cc4)cc23)c1F [vemurafenib]
amount of dxr in cells in the presence of vemurafenib (WM9R cells): significantly increased | ERK phosphorylation in tumor extracts (pERK/ERK, Western blot) [4]: reduced ERK phosphorylation | amount of dxr in cells in the presence of vemurafenib (A375 cells [5]): significantly increased

COc1cc(C)c(CCC(C)CCc2cc(O)ccc2O)c(C)c1C (centres unmarked) [Compound 13]
Dxr IC50 in the presence of compound relative to that in the presence of PAH (A375 cells [2]; A375, 20 µM compound): comparable to that of PAH | Dxr IC50 in the presence of compound relative to that in the presence of PAH (MeWo cells [3]; MeWo, 20 µM compound): approximately 4 fold

COc1ccc(O)c(CC=C(C)CCc2c(C)cc(OC)c(C)c2C)c1 [Compound 8]
Dxr-IC50 in the presence of 20 µM compound (MeWo cells [3]): could not be determined, owing to greater than 50% viability | effect on dxr cytotoxicity (MeWo cells [3]): had no effect on dxr cytotoxicity

COc1ccc(O)c(CCC(C)CCc2c(C)cc(OC)c(C)c2C)c1 (centres unmarked) [Compound 11]
Dxr-IC50 in the presence of 20 µM compound (MeWo cells [3]): could not be determined, owing to greater than 50% viability

COc1cc(C)c(CCC(C)=CCC2=CC(=O)C=CC2=O)c(C)c1C [Compound 9, Panicein A]
Dxr-IC50 in the presence of 20 µM compound (MeWo cells [3]): could not be determined, owing to greater than 50% viability | effect on dxr cytotoxicity (MeWo cells [3]): very weakly increased the cytotoxicity of dxr

COc1cc(C)c(CCC(C)CCC2=CC(=O)C=CC2=O)c(C)c1C (centres unmarked) [Compound 12]
Dxr-IC50 in the presence of 20 µM compound (MeWo cells [3]): could not be determined, owing to greater than 50% viability

Source: PMC7352342, “Inhibition of Patched Drug Efflux Increases Vemurafenib Effectiveness against Resistant Braf^V600E Melanoma” (Cancers, 2020)
